According to patent publication US8796466B2, “Hepatitis C virus inhibitors” (Bristol-Myers Squibb Company, priority 2009, dated 2014):
Where two headings read alike, the source gives them in different places.

Assays:
HCV 1b genotype = experiment: HCV Replicon assay (HCV 1b genotype); type: cell-based, Hepatitis C virus; settings: HCV 1b genotype replicon, class symbol, read-out: Range (EC50 values against HCV 1b)
In short: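 HCV-neo replicon cells, wild-type plus lines carrying NS5A-region mutations, were exposed to compound; luciferase-reporter replicon variants were also used.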

HCV = settings: literature references; cited from earlier work

Question: For `CCNC(=O)N[C@@H](C(=O)N1CCC[C@H]1c1nc(-c2ccc(COCc3ccc(-c4cnc([C@@H]5CCCN5C(=O)[C@H](NC(=O)NCC)c5ccccc5)[nH]4)cc3)cc2)c[nH]1)c1ccccc1` [OL-18, 1-ethyl-3-((1R)-2-((2S)-2-(4-(4-(((4-(2-((2S)-1-((2R)-2-((ethylcarbamoyl)amino)-2-phenylacetyl)-2-pyrrolidinyl)-1H-imidazol-5-yl)benzyl)oxy)methyl)phenyl)-1H-imidazol-2-yl)-1-pyrrolidinyl)-2-oxo-1-phenylethyl)urea], which EC50 (HCV 1b genotype; Hepatitis C virus) is on record?
Answer: 0.002 to 0.099 nM

Question: For `O=C(NC1CCCC1)N[C@@H](C(=O)N1CCC[C@H]1c1nc(-c2ccc(COCc3ccc(-c4cnc([C@@H]5CCCN5C(=O)[C@H](NC(=O)NC5CCCC5)c5ccccc5)[nH]4)cc3)cc2)c[nH]1)c1ccccc1` [OL-19, 1-cyclopentyl-3-((1R)-2-((2S)-2-(4-(4-(((4-(2-((2S)-1-((2R)-2-((cyclopentylcarbamoyl)amino)-2-phenylacetyl)-2-pyrrolidinyl)-1H-imidazol-5-yl)benzyl)oxy)methyl)phenyl)-1H-imidazol-2-yl)-1-pyrrolidinyl)-2-oxo-1-phenylethyl)urea], which EC50 (HCV 1b genotype; Hepatitis C virus) is on record?
Answer: 1 to 9.9 nM

Question: With `CN(C)[C@@H](C(=O)N1CCC[C@H]1c1ncc(-c2ccc(COCc3cccc(-c4cnc([C@@H]5CCCN5C(=O)[C@@H](c5ccccc5)N(C)C)[nH]4)c3)cc2)[nH]1)c1ccccc1` [OL-20, (1R)-2-((2S)-2-(4-(3-(((4-(2-((2S)-1-((2R)-2-(dimethylamino)-2-phenylacetyl)-2-pyrrolidinyl)-1H-imidazol-4-yl)benzyl)oxy)methyl)phenyl)-1H-imidazol-2-yl)-1-pyrrolidinyl)-N,N-dimethyl-2-oxo-1-phenylethanamine] as the compound, how does the EC50 (HCV 1b genotype; Hepatitis C virus) read?
Answer: 0.1 to 0.99 nM

Question: With `O=C([C@H](O)c1ccccc1)N1CCC[C@H]1c1nc(-c2ccc(COCc3cccc(-c4c[nH]c([C@@H]5CCCN5C(=O)[C@H](O)c5ccccc5)n4)c3)cc2)c[nH]1` [OL-21, (1R)-2-((2S)-2-(4-(3-(((4-(2-((2S)-1-((2R)-2-hydroxy-2-phenylacetyl)-2-pyrrolidinyl)-1H-imidazol-4-yl)benzyl)oxy)methyl)phenyl)-1H-imidazol-2-yl)-1-pyrrolidinyl)-2-oxo-1-phenylethanol] as the compound, how does the EC50 (HCV 1b genotype; Hepatitis C virus) read?
Answer: 0.1 to 0.99 nM

Question: With `COC(=O)N[C@@H](C(=O)N1CCC[C@H]1c1nc(-c2ccc(COCc3cccc(-c4c[nH]c([C@@H]5CCCN5C(=O)[C@H](NC(=O)OC)c5ccccc5)n4)c3)cc2)c[nH]1)c1ccccc1` [OL-22] as the compound, how does the EC50 (HCV 1b genotype) read?
Answer: 0.002 to 0.099 nM

Question: Which EC50 (HCV 1b genotype; Hepatitis C virus) does the source give for `CNC(=O)N[C@@H](C(=O)N1CCC[C@H]1c1nc(-c2ccc(COCc3cccc(-c4c[nH]c([C@@H]5CCCN5C(=O)[C@H](NC(=O)NC)c5ccccc5)n4)c3)cc2)c[nH]1)c1ccccc1` [OL-23, 1-methyl-3-((1R)-2-((2S)-2-(4-(3-(((4-(2-((2S)-1-((2R)-2-((methylcarbamoyl)amino)-2-phenylacetyl)-2-pyrrolidinyl)-1H-imidazol-4-yl)benzyl)oxy)methyl)phenyl)-1H-imidazol-2-yl)-1-pyrrolidinyl)-2-oxo-1-phenylethyl)urea] here?
Answer: 0.1 to 0.99 nM

Question: Which EC50 (HCV 1b genotype; Hepatitis C virus) does the source give for `CCNC(=O)N[C@@H](C(=O)N1CCC[C@H]1c1nc(-c2ccc(COCc3cccc(-c4c[nH]c([C@@H]5CCCN5C(=O)[C@H](NC(=O)NCC)c5ccccc5)n4)c3)cc2)c[nH]1)c1ccccc1` [OL-24, 1-ethyl-3-((1R)-2-((2S)-2-(4-(3-(((4-(2-((2S)-1-((2R)-2-((ethylcarbamoyl)amino)-2-phenylacetyl)-2-pyrrolidinyl)-1H-imidazol-4-yl)benzyl)oxy)methyl)phenyl)-1H-imidazol-2-yl)-1-pyrrolidinyl)-2-oxo-1-phenylethyl)urea] here?
Answer: 0.002 to 0.099 nM

Question: Which EC50 (HCV 1b genotype; Hepatitis C virus) does the source give for `O=C(NC1CCCC1)N[C@@H](C(=O)N1CCC[C@H]1c1nc(-c2ccc(COCc3cccc(-c4c[nH]c([C@@H]5CCCN5C(=O)[C@H](NC(=O)NC5CCCC5)c5ccccc5)n4)c3)cc2)c[nH]1)c1ccccc1` [OL-25, 1-cyclopentyl-3-((1R)-2-((2S)-2-(4-(3-(((4-(2-((2S)-1-((2R)-2-((cyclopentylcarbamoyl)amino)-2-phenylacetyl)-2-pyrrolidinyl)-1H-imidazol-4-yl)benzyl)oxy)methyl)phenyl)-1H-imidazol-2-yl)-1-pyrrolidinyl)-2-oxo-1-phenylethyl)urea] here?
Answer: 0.002 to 0.099 nM

Question: For `COC(=O)N[C@H](C(=O)N1[C@@H]2C[C@@H]2C[C@H]1c1nc(-c2ccc([C@@H]3C[C@H]3c3ccc(-c4c[nH]c([C@@H]5C[C@H]6C[C@H]6N5C(=O)[C@@H](NC(=O)OC)C(C)C)n4)cc3)cc2)c[nH]1)C(C)C` [m9.5, methyl ((1S)-1-(((1R,3S,5R)-3-(4-(4-((1R,2R)-2-(4-(2-((1R,3S,5R)-2-((2S)-2-((methoxycarbonyl)amino)-3-methylbutanoyl)-2-azabicyclo[3.1.0]hex-3-yl)-1H-imidazol-4-yl)phenyl)cyclopropyl)phenyl)-1H-imidazol-2-yl)-2-azabicyclo[3.1.0]hex-2-yl)carbonyl)-2-methylpropyl)carbamate], which EC50 (HCV 1b genotype; Hepatitis C virus) is on record?
Answer: 0.002 to 0.099 nM

Question: For cyclosporin A, which “activity against HCV in clinical trials” value (HCV) is on record?
Answer: active against HCV
